Data as given in ChEMBL document CHEMBL1687706, “Inhibition of human immunodeficiency virus type 1 replication in human cells by Debio-025, a novel cyclophilin binding agent” (Antimicrob Agents Chemother, 2008).
Calls of active or inactive are those of the source. The calls are words filed in the database; no cut-off is given here.

Experiments:
[1] = test system: Human papillomavirus type 16; assay: Antiviral activity against HPV-16 infected in Caski cells assessed as inhibition of viral replication after 7 days; format: functional, Human papillomavirus 16
[2] = test system: Influenza B virus; assay: Antiviral activity against influenza B virus infected in MDCK cells assessed as inhibition of viral replication; format: functional, organism-based
[3] = test system: Rattus norvegicus; assay: Immunosuppressive activity in Sprague-Dawley rat […] model assessed as percent T-helper cells at 10 mg/kg, po administered once daily for 28 days by flow cytometry; format: functional
[4] = test system: Influenza A virus; assay: Antiviral activity against Influenza A virus H3N2 infected in MDCK cells assessed as inhibition of viral replication; format: functional, organism-based
[5] = test system: Human papillomavirus type 16; assay: Antiviral activity against HPV-16 infected in Caski cells assessed as inhibition of viral replication after 3 days; format: functional, organism-based, Human papillomavirus 16; details: Human papillomavirus 16, Ca-Ski, 72 h
[6] = test system: Human immunodeficiency virus 1; details: Human immunodeficiency virus 1, 3B
[7] = test system: Human immunodeficiency virus 1; assay: microbe, parasite or virus in culture; details: Human immunodeficiency virus 1, SF2
[8] = test system: Coxsackievirus; assay: Antiviral activity against Coxsackie B3 infected in african green monkey Vero cells assessed as inhibition of viral replication; format: functional, organism-based
[9] = test system: Human immunodeficiency virus 1; assay: microbe, parasite or virus in culture; details: Human immunodeficiency virus 1, 3B, MT4
[10] = test system: Vaccinia virus; assay: Antiviral activity against Vaccinia virus infected in human embryonic lung cells assessed as reduction in viral yield measured after 3 days; format: functional, organism-based; details: Orthopoxvirus vaccinia, 72 h
[11] = test system: Rattus norvegicus; assay: Immunosuppressive activity in Sprague-Dawley rat […] model assessed as percent T lymphocytes at 10 mg/kg, po administered once daily for 28 days by flow cytometry; format: functional
[12] = test system: Human alphaherpesvirus 2; assay: Antiviral activity against Herpes simplex virus 2 196 infected in human embryonic lung cells assessed as inhibition of viral replication; format: functional, organism-based; details: Human alphaherpesvirus 2, 196, lung
[13] = test system: Human alphaherpesvirus 1; assay: Antiviral activity against Herpes simplex virus 1 F infected in human embryonic lung cells assessed as inhibition of viral replication; format: functional, organism-based; details: Human alphaherpesvirus 1, strain F
[14] = test system: Yellow fever virus; assay: Antiviral activity against Yellow fever virus 17D infected in african green monkey Vero cells assessed as inhibition of viral replication; format: functional, cell-based
[15] = test system: Hepatitis C virus; assay: Antiviral activity against HCV infected in human Huh 5.2 cells assessed as reduction in viral RNA level by luciferase reporter gene assay; format: functional, organism-based, Hepacivirus hominis; details: Huh-5-2
[16] = test system: Bovine viral diarrhea virus 1; assay: Antiviral activity against BVDV infected in […] cells assessed as inhibition of viral replication; format: functional, organism-based; details: Bovine viral diarrhea virus isolates and strains
[17] = test system: Human alphaherpesvirus 3; assay: Antiviral activity against VZV OKA infected in human embryonic lung cells assessed as inhibition of; format: functional, organism-based; details: Human alphaherpesvirus 3, OKA
[18] = test system: Vesicular stomatitis virus; assay: Antiviral activity against VSV infected in human embryonic lung cells assessed as inhibition of viral replication; format: functional, organism-based
[19] = test system: Rattus norvegicus; assay: Immunosuppressive activity in Sprague-Dawley rat KHL model assessed as percent cytotoxic T cells at 10 mg/kg, po administered once daily for 28 days by flow cytometry; format: functional, T-cell
[20] = test system: Influenza A virus; assay: Antiviral activity against Influenza A virus H1N1 infected in MDCK cells assessed as inhibition of viral replication; format: functional, organism-based
[21] = test system: Human alphaherpesvirus 2; assay: Antiviral activity against Herpes simplex virus 2 G infected in human embryonic lung cells assessed as inhibition of viral replication; format: functional, organism-based; details: Human alphaherpesvirus 2, strain G
[22] = test system: Rattus norvegicus; assay: Immunosuppressive activity in Sprague-Dawley rat […] model assessed as IgM level at 10 mg/kg, po administered once daily for 28 days by ELISA; format: functional
[23] = test system: Human betaherpesvirus 5; assay: Antiviral activity against Human cytomegalovirus AD169 infected in human embryonic lung cells assessed as reduction in viral yield; format: functional, organism-based; details: Human betaherpesvirus 5, AD169, lung
[24] = test system: Human betaherpesvirus 5; assay: Antiviral activity against Human cytomegalovirus Davis infected in human embryonic lung cells assessed as reduction in viral yield; format: functional, organism-based; details: Human betaherpesvirus 5, Davis
[25] = test system: Human alphaherpesvirus 2; assay: Antiviral activity against Herpes simplex virus 2 Lyons infected in human embryonic lung cells assessed as inhibition of viral replication; format: functional, organism-based; details: Human alphaherpesvirus 2, Lyons
[26] = test system: Human alphaherpesvirus 1; assay: Antiviral activity against Herpes simplex virus 1 McIntyre infected in human embryonic lung cells assessed as inhibition of viral replication; format: functional, organism-based; details: Human alphaherpesvirus 1, McIntyre
[27] = test system: Human alphaherpesvirus 1; assay: Antiviral activity against Herpes simplex virus 1 KOS infected in human embryonic lung cells assessed as inhibition of viral replication; format: functional, organism-based; details: Human alphaherpesvirus 1, KOS
[28] = test system: Human respiratory syncytial virus; assay: Antiviral activity against RSV infected in human HeLa cells assessed as inhibition of viral replication
[29] = test system: SARS-CoV; assay: Antiviral activity against SARS coronavirus infected in african green monkey Vero cells assessed as inhibition of viral replication; format: functional, organism-based; details: Severe acute respiratory syndrome-related coronavirus
[30] = test system: Feline coronavirus; assay: Antiviral activity against Feline coronavirus infected in CRFK assessed as inhibition of viral replication; format: functional, organism-based; details: Alphacoronavirus 1, CRFK
[31] = test system: Jurkat; assay: Immunosuppressive activity in human Jurkat cells assessed as inhibition of PHA-phorbol myristate acetate induced beta-galactosidase activity at 6.75 uM; format: functional, cell-based
[32] = test system: PBMC; assay: Cytotoxicity against human PBMC at 0.83 uM by MTT assay; format: cell-based
[33] = test system: MT4; assay: Cytotoxicity against human MT4 cells at 0.83 uM by MTT assay; format: cell-based; details: mt4, 0.83 µM

C/C=C/C[C@@H](C)[C@@H](O)[C@H]1C(=O)N[C@@H](CC)C(=O)N(C)CC(=O)N(C)[C@@H](CC(C)C)C(=O)N[C@@H](C(C)C)C(=O)N(C)[C@@H](CC(C)C)C(=O)N[C@@H](C)C(=O)N[C@H](C)C(=O)N(C)[C@@H](CC(C)C)C(=O)N(C)[C@@H](CC(C)C)C(=O)N(C)[C@@H](C(C)C)C(=O)N1C [CYCLOSPORINE]
TC50 [1]: 0.3 µM
IC50 [2]: > 14.8 µM
Activity [3]: 23.1%
IC50 [4]: > 14.8 µM
IC50 [5]: 0.4 µM
IC50 [6]: 0.45 µM
IC50 [7]: 0.54 µM
IC50 [8]: > 25 µM
IC50 [9]: > 0.83 µM
IC50 [10]: > 8.3 µM
Activity [11]: 33.6%
IC50 [12]: > 8.3 µM
IC50 [13]: > 8.3 µM
IC50 [14]: > 16.6 µM
IC50 [15]: 2.3 µM
IC50 [16]: > 9.9 µM
IC50 [17]: 3.3 µM
IC50 [18]: > 8.3 µM
Activity [19]: 9.2%
IC50 [20]: > 14.8 µM
IC50 [21]: > 8.3 µM
deltaA [22]: 0.18
IC50 [23]: > 18.3 µM
IC50 [24]: > 18.3 µM
IC50 [25]: > 8.3 µM
IC50 [26]: > 8.3 µM
IC50 [27]: > 8.3 µM
IC50 [28]: > 8.3 µM
IC50 [29]: > 8.3 µM
IC50 [30]: 1.5 µM

C/C=C/C[C@@H](C)[C@@H](O)[C@H]1C(=O)N[C@@H](CC)C(=O)N(C)CC(=O)N(C)[C@@H]([C@@H](C)CC)C(=O)N[C@@H](C(C)C)C(=O)N(C)[C@@H](CC(C)C)C(=O)N[C@@H](C)C(=O)N[C@H](C)C(=O)N(C)[C@@H](CC(C)C)C(=O)N(C)[C@@H](CC(C)C)C(=O)N(C)[C@@H](C(C)C)C(=O)N1C [NIM811]
IC50 [6]: 0.47 µM
IC50 [7]: 0.5 µM
IC50 [9]: 0.31 µM
inhibition [31]: Active
Activity [32]: Non-toxic
Activity [33]: Non-toxic
